# Literature values in US11823773B2, “Nant cancer vaccine strategies” (Nant Holdings IP, LLC, priority 2018, dated 2023).
compound,measurement,setting,value
O=C(c1ccc(F)c(F)c1Nc1ccc(I)cc1F)N1CC(O)([C@@H]2CCCCN2)C1 [cobimetinib],PFS over vemurafenib treatment alone,advanced melanoma; in combination with vemurafenib,significant increase in PFS
rituximab: anti-CD20 antibody,response rate to single agent retreatment,"CD20-positive NHL; rituximab refractory (RR) patients, reasonable estimate, no trial data reported",< 5%
same,patients responding to retreatment,CD20-positive NHL; rituximab sensitive (RS) patients,approximately 40%
CC(C)(C)c1nc(-c2cccc(NS(=O)(=O)c3c(F)cccc3F)c2F)c(-c2ccnc(N)n2)s1 [Dabrafenib],PFS compared to dacarbazine,"advanced melanoma; human, in vivo",improvement in PFS
